Like-named read-outs stand apart in the source and are kept apart here.
Tested on: C. elegans
[1] = Table S2, C. elegans SS assay, 110 μM, 0 h, averages of 4 data points
[2] = Table S2, C. elegans SS assay, 110 μM, 24 h, averages of 4 data points

## C=CC(=C)CC/C=C(\C)CCC=C(C)C [(E)-β-Farnesene]
[1]
  Percentage of motility inhibition 0 h: 0%
[2]
  Percentage of motility inhibition 24 h: 11%

## CC1(C)[C@@H](O[C@@H]2OC[C@H](O[C@@H]3O[C@H](CO)[C@@H](O)[C@H](O)[C@H]3O[C@@H]3OC[C@@H](O)[C@H](O)[C@H]3O)[C@H](O)[C@H]2O[C@@H]2O[C@H](CO)[C@@H](O)[C@H](O)[C@H]2O)CC[C@]2(C)[C@H]3CC[C@]45OC[C@@]6(CC[C@](C)(C=O)C[C@H]64)[C@H](O)C[C@@]5(C)[C@]3(C)CC[C@@H]12 [Ardisiacrispin A]
[1]
  Percentage of motility inhibition 0 h: 22%
[2]
  Percentage of motility inhibition 24 h: 0%

## CC(=O)OC[C@H]1O[C@@H](O[C@@H]2[C@@H](O)[C@H](O[C@@H]3[C@H](O)C(C)(C)C[C@H]4C5=CC[C@@H]6[C@@]7(C)CC[C@H](O[C@@H]8O[C@H](C(=O)O)[C@@H](O)[C@H](O)[C@H]8O[C@@H]8O[C@H](CO)[C@H](O)[C@H](O)[C@H]8O[C@@H]8O[C@H](CO)[C@@H](O)[C@H](O)[C@H]8O)[C@](C)(CO)[C@@H]7CC[C@@]6(C)[C@]5(C)CC[C@@]34C)OC[C@@H]2O)[C@H](OC(C)=O)[C@@H](OC(C)=O)[C@@H]1OC(C)=O [Soyasaponin Ab]
[1]
  Percentage of motility inhibition 0 h: 21%
[2]
  Percentage of motility inhibition 24 h: 4%

## O=C(/C=C/c1ccc(O)cc1)OC[C@H]1O[C@@H](Oc2c(-c3ccc(O)cc3)oc3cc(O)cc(O)c3c2=O)[C@H](O)[C@@H](O)[C@@H]1O [Tribuloside]
[1]
  Percentage of motility inhibition 0 h: 13%
[2]
  Percentage of motility inhibition 24 h: 16%

## CC(C)=CCC[C@](C)(O)[C@H]1CC[C@]2(C)[C@@H]1[C@H](O)C[C@@H]1[C@@]3(C)CC[C@H](O)C(C)(C)[C@@H]3[C@@H](O)C[C@]12C [(20S)-Protopanaxatriol]
[1]
  Percentage of motility inhibition 0 h: 31%
[2]
  Percentage of motility inhibition 24 h: 32%

## Teicoplanin
[1]
  Percentage of motility inhibition 0 h: 3%
[2]
  Percentage of motility inhibition 24 h: 9%

## COc1ccc2c(c1O)-c1c(O)c(OC)cc3c1[C@H](C2)[N+](C)(C)CC3.[Cl-] [(+)‐Magnoflorine (chloride)]
[1]
  Percentage of motility inhibition 0 h: 0%
[2]
  Percentage of motility inhibition 24 h: 0%

## OC[C@@H](O)[C@@H](O)[C@H](O)[C@H](O)CO (racemic) [DL-Mannitol]
[1]
  Percentage of motility inhibition 0 h: 0%
[2]
  Percentage of motility inhibition 24 h: 15%

## C=C1C(=O)O[C@H]2C[C@@H](C)[C@@H]3[C@@H](OC(C)=O)C[C@H](O)[C@@]3(C)[C@@H](OC(C)=O)[C@H]12 [Britannin]
[1]
  Percentage of motility inhibition 0 h: 14%
[2]
  Percentage of motility inhibition 24 h: 5%

## COc1ccc2cc3[n+](cc2c1O)CCc1cc2c(cc1-3)OCO2.[Cl-] [Berberrubine (chloride)]
[1]
  Percentage of motility inhibition 0 h: 0%
[2]
  Percentage of motility inhibition 24 h: 0%

## CS/C=C/C(=O)NCCO[C@@H]1O[C@H](CO)[C@@H](O)[C@H](O)[C@H]1O [Entadamide‐A‐β‐D‐glucopyranoside]
[1]
  Percentage of motility inhibition 0 h: 24%
[2]
  Percentage of motility inhibition 24 h: 13%

## O.O=C(O)[C@@H]1[C@H]2C[C@H]3c4[nH]c5ccccc5c4CCN3C[C@@H]2CC[C@@H]1O [Yohimbic acid (hydrate)]
[1]
  Percentage of motility inhibition 0 h: 16%
[2]
  Percentage of motility inhibition 24 h: 0%

## CS(=O)(=O)O.C[C@H]1COc2c(C3(N)CC3)c(F)cc3c(=O)c(C(=O)O)cn1c23 [Pazufloxacin (mesylate)]
[1]
  Percentage of motility inhibition 0 h: 28%
[2]
  Percentage of motility inhibition 24 h: 2%

## CCCCCCCCCCCCC(=O)NNC(=O)c1c(O)c2ccccc2n(CC)c1=O [I2906]
[1]
  Percentage of motility inhibition 0 h: 27%
[2]
  Percentage of motility inhibition 24 h: 30%

## CC1(C)S[C@@H]2[C@H](NC(=O)Cc3ccccc3)C(=O)N2[C@H]1C(=O)[O-].[K+] [Penicillin G (potassium)]
[1]
  Percentage of motility inhibition 0 h: 14%
[2]
  Percentage of motility inhibition 24 h: 8%

## CC1(C)CC[C@]2(C(=O)O[C@@H]3O[C@H](CO)[C@@H](O)[C@H](O)[C@H]3O)CC[C@]3(C)C(=CC[C@@H]4[C@@]5(C)CC[C@H](O[C@@H]6O[C@H](C(=O)O)[C@@H](O)[C@H](O[C@@H]7OC[C@@H](O)[C@H](O)[C@H]7O)[C@H]6O)C(C)(C)[C@@H]5CC[C@]43C)[C@@H]2C1 [Momordin IIc]
[1]
  Percentage of motility inhibition 0 h: 0%
[2]
  Percentage of motility inhibition 24 h: 0%

## C=C1C(=O)O[C@@H]2C[C@@]3(C)CCC[C@H](C)C3=C[C@H]12 [Alantolactone]
[1]
  Percentage of motility inhibition 0 h: 6%
[2]
  Percentage of motility inhibition 24 h: 29%

## Nc1nc(=O)[nH]c2c1ncn2[C@@H]1O[C@H](CO)[C@@H](O)[C@H]1O [Crotonoside]
[1]
  Percentage of motility inhibition 0 h: 0%
[2]
  Percentage of motility inhibition 24 h: 0%

## CC(C)=CCC[C@@](C)(O)[C@H]1CC[C@]2(C)[C@@H]1[C@H](O)C[C@@H]1[C@@]3(C)CC[C@H](O[C@@H]4O[C@H](CO)[C@@H](O)[C@H](O)[C@H]4O[C@@H]4O[C@H](CO)[C@@H](O)[C@H](O)[C@H]4O)C(C)(C)[C@@H]3CC[C@]12C [(20R)-Ginsenoside Rg3]
[1]
  Percentage of motility inhibition 0 h: 22%
[2]
  Percentage of motility inhibition 24 h: 15%

## C[C@@H]1O[C@@H](Oc2cc(O)c3c(c2)O[C@H](c2ccc(O)c(O)c2)[C@@H](O)C3=O)[C@H](O)[C@H](O)[C@H]1O [Taxifolin 7‐O‐rhamnoside]
[1]
  Percentage of motility inhibition 0 h: 33%
[2]
  Percentage of motility inhibition 24 h: 12%

## O=C(O[C@@H]1Cc2c(O)cc(O)cc2O[C@@H]1c1cc(O)c(O)c(O)c1)c1cc(O)c(O)c(O)c1 [(‐)‐Epigalloca techin Gallate]
[1]
  Percentage of motility inhibition 0 h: 9%
[2]
  Percentage of motility inhibition 24 h: 6%

## CN1CC(=O)NC1=O [N‐Methylhydantoin]
[1]
  Percentage of motility inhibition 0 h: 13%
[2]
  Percentage of motility inhibition 24 h: 16%

## CC(C)=CCC[C@@](C)(O)[C@H]1CC[C@]2(C)[C@@H]1[C@H](O)C[C@@H]1[C@@]3(C)CC[C@H](O[C@@H]4O[C@H](CO)[C@@H](O)[C@H](O)[C@H]4O)C(C)(C)[C@@H]3CC[C@]12C [20(R)-Ginsenoside Rh2]
[1]
  Percentage of motility inhibition 0 h: 11%
[2]
  Percentage of motility inhibition 24 h: 6%

## C[C@H](CCC(=O)[O-])[C@H]1CC[C@H]2[C@@H]3[C@H](O)C[C@@H]4C[C@H](O)CC[C@]4(C)[C@H]3C[C@H](O)[C@]12C.[Na+] [Cholic acid (sodium)]
[1]
  Percentage of motility inhibition 0 h: 0%
[2]
  Percentage of motility inhibition 24 h: 5%

## O=c1c(O)c(-c2ccc(O)cc2)oc2cc(O)ccc12 [3,7,4'‐Trihydroxyflavone]
[1]
  Percentage of motility inhibition 0 h: 0%
[2]
  Percentage of motility inhibition 24 h: 16%

## C[C@@H]1CC[C@]2(C(=O)O[C@@H]3O[C@H](CO)[C@@H](O)[C@H](O)[C@H]3O)CC[C@]3(C)C(=CC[C@@H]4[C@@]5(C)C[C@@H](O)[C@H](O)C(C)(C)[C@@H]5CC[C@]43C)[C@@H]2[C@]1(C)O [Rosamultin]
[1]
  Percentage of motility inhibition 0 h: 21%
[2]
  Percentage of motility inhibition 24 h: 1%

## Nc1ncnc(N[C@@H]2O[C@H](CO)[C@@H](O)[C@H]2O)c1[N+](=O)[O-] [Clitocine]
[1]
  Percentage of motility inhibition 0 h: 0%
[2]
  Percentage of motility inhibition 24 h: 4%

## Nordihydrocapsaicin
110 µM
  Percentage of motility inhibition 0 h: 0%
  Percentage of motility inhibition 24 h: 4%

## COC1=CC(=O)OC(/C=C/c2ccccc2)C1 (stereo not drawn) [(+)‐Kavain]
[1]
  Percentage of motility inhibition 0 h: 38%
[2]
  Percentage of motility inhibition 24 h: 14%

## COC(=O)[C@@]1(C)CC[C@]2(C(=O)O)CC[C@]3(C)C(=CC[C@@H]4[C@@]5(C)C[C@H](O)[C@H](O)[C@@](C)(CO)[C@@H]5CC[C@]43C)[C@@H]2C1 [Phytolaccagenin]
[1]
  Percentage of motility inhibition 0 h: 5%
[2]
  Percentage of motility inhibition 24 h: 15%

## C/C=C(\C)C(=O)O[C@H]1[C@H](O)[C@]2(COC(C)=O)[C@@H](O)C[C@]3(C)C(=CC[C@@H]4[C@@]5(C)CC[C@H](O[C@@H]6O[C@H](C(=O)O)[C@@H](O)[C@H](O)[C@H]6O)[C@@](C)(CO)[C@@H]5CC[C@]43C)[C@@H]2CC1(C)C [Gymnemic acid I]
[1]
  Percentage of motility inhibition 0 h: 20%
[2]
  Percentage of motility inhibition 24 h: 0%

## Clc1ccc(C(Cn2ccnc2)OCc2csc3c(Cl)cccc23)c(Cl)c1.O=[N+]([O-])O (stereo not drawn) [Sertaconazole (nitrate)]
[1]
  Percentage of motility inhibition 0 h: 40%
[2]
  Percentage of motility inhibition 24 h: 6%

## Cn1cnc2c(ncn2[C@@H]2O[C@H](CO)[C@@H](O)[C@H]2O)c1=N [1‐Methyladenosine]
[1]
  Percentage of motility inhibition 0 h: 7%
[2]
  Percentage of motility inhibition 24 h: 0%

## CO/N=C(\C(=O)N[C@@H]1C(=O)N2C(C(=O)O)=C(CSc3nnnn3C)CS[C@H]12)c1csc(N)n1.CO/N=C(\C(=O)N[C@@H]1C(=O)N2C(C(=O)O)=C(CSc3nnnn3C)CS[C@H]12)c1csc(N)n1.Cl [Cefmenoxime (hydrochloride)]
[1]
  Percentage of motility inhibition 0 h: 15%
[2]
  Percentage of motility inhibition 24 h: 0%

## C1CNCCN1.O.O.O.O.O.O [Piperazine (hexahydrate)]
[1]
  Percentage of motility inhibition 0 h: 58%
[2]
  Percentage of motility inhibition 24 h: 12%

## CC(/C=C/C=C(\C)C(=O)O)=C\C=C\C=C(C)\C=C\C=C(/C)C(=O)O.CNC[C@H](O)[C@@H](O)[C@H](O)[C@H](O)CO.CNC[C@H](O)[C@@H](O)[C@H](O)[C@H](O)CO [Crocetin (meglumine)]
[1]
  Percentage of motility inhibition 0 h: 6%
[2]
  Percentage of motility inhibition 24 h: 10%

## C/C=C1\C[C@@H](C)[C@](O)(CO)C(=O)OCC2=CCN3CC[C@@H](OC1=O)[C@@H]23 [Usaramine]
[1]
  Percentage of motility inhibition 0 h: 31%
[2]
  Percentage of motility inhibition 24 h: 21%

## Cc1ccc2nc(C)ccc2c1 [2,6‐Dimethylquinoline]
[1]
  Percentage of motility inhibition 0 h: 0%
[2]
  Percentage of motility inhibition 24 h: 6%

## CN[C@@H](Cc1c[nH]c2ccccc12)C(=O)O [L‐(+)‐Abrine]
[1]
  Percentage of motility inhibition 0 h: 0%
[2]
  Percentage of motility inhibition 24 h: 0%

## O=C1N[C@@H]2C(=C[C@H](O)[C@@H](O)[C@H]2O)c2cc3c(c(O)c21)OCO3 [Narciclasine]
[1]
  Percentage of motility inhibition 0 h: 32%
[2]
  Percentage of motility inhibition 24 h: 14%

## C[C@H]1O[C@@H](O[C@H]2CC[C@@]3(C)[C@@H](CC[C@]4(C)[C@@H]3C=CC3=C5CC(C)(C)CC[C@]5(CO)[C@H](O)C[C@]34C)[C@]2(C)CO)[C@H](O)[C@@H](O)[C@H]1O [Prosaikogenin D]
[1]
  Percentage of motility inhibition 0 h: 15%
[2]
  Percentage of motility inhibition 24 h: 54%

## CO/N=C(\C(=O)N[C@@H]1C(=O)N2C(C(=O)[O-])=C(C[n+]3ccn4ncccc43)CS[C@H]12)c1nsc(N)n1.Cl [Cefozopran (hydrochloride)]
[1]
  Percentage of motility inhibition 0 h: 10%
[2]
  Percentage of motility inhibition 24 h: 12%

Reference: paper PMC11855827, “High-Throughput Screening of Five Compound Libraries for Anthelmintic Activity and Toxicity Leads to the Discovery of Two Flavonoid Compounds” (International Journal of Molecular Sciences, 2025)
